# From US6849639B2, “Integrin inhibitors and their methods of use” (Amgen Inc., priority 1999, dated 2005)
# Structures can show the parent of a compound that is named as a salt.
row,melting point,Compound
1,230 °C (dec.),"O=C(O)CC(NC(=O)C1CC(=O)N(c2cccc(NC(=S)NCc3ccccc3)c2)C1)c1cccnc1 (centres unmarked) (as salt: sodium) [Example 20, 3-({5-oxo-1-(3-({(benzylamino)thioxomethyl}amino)phenyl)pyrrolidin-3-yl}carbonylamino)-3-(3-pyridyl)propanoic acid, sodium salt]"
2,230 °C (dec.),"O=C(O)CC(NC(=O)C1CC(=O)N(c2cccc(NC(=S)NCc3ccc(F)cc3)c2)C1)c1cccnc1 (centres unmarked) (as salt: sodium) [Example 21, 3-((1-{3-(({((4-fluorophenyl)methyl)amino}thioxomethyl)amino)phenyl}-5-oxopyrrolidin-3-yl)carbonylamino)-3-(3-pyridyl)propanoic acid, sodium salt]"
3,240 °C (dec.),"O=C(O)CC(NC(=O)C1CC(=O)N(c2cccc(NC(=S)NCc3ccco3)c2)C1)c1cccnc1 (centres unmarked) (as salt: sodium) [Example 22, 3-({1-(3-({((2-furylmethyl)amino)thioxomethyl}amino)phenyl)-5-oxopyrrolidin-3-yl}carbonylamino)-3-(3-pyridyl)propanoic acid, sodium salt]"
4,250 °C (dec.),"CC(C)CCNC(=S)Nc1cccc(N2CC(C(=O)NC(CC(=O)O)c3cccnc3)CC2=O)c1 (centres unmarked) (as salt: sodium) [Example 23, 3-({1-(3-({((3-methylbutyl)amino)thiooxomethyl}amino)phenyl)-5-oxopyrroidin-3-yl}carbonylamino)-3-(3-pyridyl)propanoic acid, sodium salt]"
5,235 °C (dec.),"CCCCNC(=S)Nc1cccc(N2CC(C(=O)NC(CC(=O)O)c3cccnc3)CC2=O)c1 (centres unmarked) (as salt: sodium) [Example 24, 3-{(1-(3-{((butylamino)thioxomethyl)amino}phenyl)-5-oxopyrrolidin-3-yl)carbonylamino}-3-(3-pyridyl)propanoic acid, sodium salt]"
